In patent US12171757B2, “Crenolanib for treating FLT3 mutated proliferative disorders” (Arog Pharmaceuticals, Inc., priority 2013, dated 2024):

Columns and labels:
[1] = system: relapsed/refractory AML patient with a de novo FLT3-ITD mutation and acquired FLT3-D835 TKD mutation; experiment: Crenolanib besylate single agent therapy, Example 1 patient, clinical trial NCT01522469; type: in vivo, human
Excerpt: (§1) Response criteria for AML clinical trials are adapted from the International Working Group for AML. See Cheson et al. Revised Recommendations of the International Working Group for Diagnosis, Standardization of Response Criteria, Treatment Outcomes, and Reporting Standards for Therapeutic Trials in Acute Myeloid Leukemia. J Clin Oncol. 2003; 21: 4642-4649. Responders are patients who obtain a Complete Response (CR), Complete Response with incomplete blood count recovery (CRi), or Partial Remission (PR). Briefly, criteria are as follows:
To overcome resistance to prior therapy, the patient was provided single agent oral crenolanib besylate on a clinical trial for relapsed or refractory AML patients with a FLT3-D835 TKD mutation (NCT01522469). […] The patient began treatment with 100 mg of oral crenolanib three times daily. […] The patient discontinued crenolanib therapy and underwent allogeneic stem cell transplant.

[2] = system: relapsed/refractory AML patient with a de novo FLT3-ITD mutation and acquired FLT3-D835 TKD mutation; experiment: Crenolanib besylate single agent therapy, Example 2 patient, clinical trial NCT01522469; type: in vivo, human
Excerpt: as §1
To overcome resistance to prior therapy with FLT3 tyrosine kinase inhibitor X, the patient was provided single agent oral crenolanib besylate on a clinical trial for relapsed or refractory AML patients with a FLT3-D835 mutation (NCT01522469). At baseline, the patient presented with 91% bone marrow blasts and 4800 units/uL of absolute circulating peripheral blood blasts. The patient began treatment with 80 mg of oral crenolanib three times daily. […] The patient discontinued crenolanib therapy and underwent allogeneic stem cell transplant.

[3] = system: heavily pretreated relapsed/refractory AML patient with acquired FLT3-ITD and FLT3-D835 TKD mutations; experiment: Crenolanib besylate monotherapy, Example 3 patient, phase II clinical trial NCT01522469; type: in vivo, human
Excerpt: as §1
A 59.2 kg person diagnosed with AML December 2011. Following initial diagnosis the patient was treated with 7+3 induction chemotherapy, followed by consolidation therapy with 1 cycle of high dose cytarabine. Five months later the patient underwent autologous stem cell transplantation with etoposide and busulfan conditioning. […] The patient was treated with 100 mg of crenolanib besylate three times daily. […] The patient discontinued crenolanib therapy to undergo allogeneic stem cell transplantation conditioning. The patient discontinued crenolanib therapy and underwent allogeneic stem cell transplant.

[4] = system: relapsed/refractory AML patient with an acquired FLT3-ITD mutation; experiment: Crenolanib besylate monotherapy, Example 4 patient, phase II clinical trial NCT01522469; type: in vivo, human
Excerpt: as §1
A 60.6 kg person diagnosed with FLT3-negative AML January 2012. […] The patient was then treated with 4 cycles of high dose cytarabine consolidation therapy. […] The patient was treated with 100 mg of crenolanib besylate three times daily. […] The patient discontinued crenolanib therapy and underwent allogeneic stem cell transplant.

[5] = system: refractory or relapsed acute leukemias; details: patients with refractory or relapsed acute leukemias; cited from earlier work
[6] = day 21 on study drug, 80 mg oral three times daily
[7] = day 15 on study drug, 100 mg three times daily
[8] = day 29 on study drug, 100 mg three times daily
[9] = day 33 on study drug, 100 mg three times daily
[10] = day 58 on study drug, 100 mg three times daily

CC1(COc2ccc3c(c2)ncn3-c2ccc3cccc(N4CCC(N)CC4)c3n2)COC1 [Crenolanib, 4-Piperidinamine, 1-[2-[5-[(3-methyl-3-oxetanyl)methoxy]-1H-benzimidazol-1-yl]-8-quinolinyl]]
Clinical response (bone marrow biopsy) ([1]; after 29 days of therapy, 100 mg, decreased to 80 mg, oral three times daily): complete remission (CR) | Bone Marrow Blast (%) ([1]; day 0 on study drug (baseline)): 75% | Bone Marrow Blast (%) ([1]; day 29 on study drug, 100 mg, decreased to 80 mg, oral three times daily): 0% | Bone Marrow Blast (%) ([1]; day 57 on study drug, 100 mg, decreased to 80 mg, oral three times daily): 1% | Days of therapy to complete clearance of malignant leukemic blasts in peripheral blood ([2]; 80 mg oral three times daily): 14 days | Bone Marrow Blast (%) ([2]; day 0 on study drug (baseline)): 91% | Absolute Peripheral Blast Count (units/uL) ([2]; day 1 on study drug (baseline value), 80 mg oral three times daily): 4800 units/uL | Absolute Peripheral Blast Count (units/uL) ([2]; day 3 on study drug, 80 mg oral three times daily): 2747 units/uL | Absolute Peripheral Blast Count (units/uL) ([2]; day 4 on study drug, 80 mg oral three times daily): 250 units/uL | Absolute Peripheral Blast Count (units/uL) ([2]; day 7 on study drug, 80 mg oral three times daily): 49 units/uL | Absolute Peripheral Blast Count (units/uL) ([2]; day 9 on study drug, 80 mg oral three times daily): 35 units/uL | Absolute Peripheral Blast Count (units/uL) ([2]; day 14 on study drug, 80 mg oral three times daily): 0 units/uL | Absolute Peripheral Blast Count (units/uL) [2, 6]: 0 units/uL | Bone Marrow Blast (%) [2, 6]: 32% | Absolute Peripheral Blast Count (units/uL) ([2]; day 28 on study drug, 80 mg oral three times daily): 0 units/uL | Bone Marrow Blast (%) ([2]; day 35 on study drug, 80 mg oral three times daily): 2% | Absolute Peripheral Blast Count (units/uL) ([2]; day 37 on study drug, 80 mg oral three times daily): 0 units/uL | Absolute Peripheral Blast Count (units/uL) ([2]; day 38 on study drug, 80 mg oral three times daily): 0 units/uL | Absolute Peripheral Blast Count (units/uL) ([2]; day 39 on study drug, 80 mg oral three times daily): 0 units/uL | Absolute Peripheral Blast Count (units/uL) ([2]; day 40 on study drug, 80 mg oral three times daily): 0 units/uL | Absolute Peripheral Blast Count (units/uL) ([2]; day 41 on study drug, 80 mg oral three times daily): 0 units/uL | Absolute Peripheral Blast Count (units/uL) ([2]; day 42 on study drug, 80 mg oral three times daily): 0 units/uL | Absolute Peripheral Blast Count (units/uL) ([2]; day 43 on study drug, 80 mg oral three times daily): 0 units/uL | Absolute Peripheral Blast Count (units/uL) ([2]; day 45 on study drug, 80 mg oral three times daily): 0 units/uL | Absolute Peripheral Blast Count (units/uL) ([2]; day 46 on study drug, 80 mg oral three times daily): 0 units/uL | Absolute Peripheral Blast Count (units/uL) ([2]; day 47 on study drug, 80 mg oral three times daily): 0 units/uL | Absolute Peripheral Blast Count (units/uL) ([2]; day 48 on study drug, 80 mg oral three times daily): 0 units/uL | Absolute Peripheral Blast Count (units/uL) ([2]; day 49 on study drug, 80 mg oral three times daily): 0 units/uL | Absolute Peripheral Blast Count (units/uL) ([2]; day 50 on study drug, 80 mg oral three times daily): 0 units/uL | Absolute Peripheral Blast Count (units/uL) ([2]; day 51 on study drug, 80 mg oral three times daily): 0 units/uL | Absolute Peripheral Blast Count (units/uL) ([2]; day 52 on study drug, 80 mg oral three times daily): 0 units/uL | Bone Marrow Blast (%) ([2]; day 65 on study drug, 80 mg oral three times daily): 4-5% | Absolute Peripheral Blast Count (units/uL) ([2]; day 69 on study drug, 80 mg oral three times daily): 0 units/uL | Clinical response (bone marrow biopsy) ([2]; over the course of 65 days of therapy, 80 mg oral three times daily): complete remission with incomplete blood count recovery (CRi) | Days of therapy to complete clearance of malignant leukemic blasts in peripheral blood ([3]; 100 mg three times daily): 15 days | Clinical response (bone marrow biopsy) ([3]; after 33 days of therapy, 100 mg three times daily): complete remission with incomplete blood count recovery (CRi) | Absolute Peripheral Blast Count (units/uL) ([3]; day 0 on study drug (baseline)): 196 units/uL | Bone Marrow Blast (%) ([3]; day 0 on study drug (baseline)): 60-70% | Absolute Peripheral Blast Count (units/uL) ([3]; day 14 on study drug, 100 mg three times daily): 14 units/uL | Absolute Peripheral Blast Count (units/uL) [3, 7]: 0 units/uL | Absolute Peripheral Blast Count (units/uL) ([3]; day 16 on study drug, 100 mg three times daily): 0 units/uL | Absolute Peripheral Blast Count (units/uL) ([3]; day 17 on study drug, 100 mg three times daily): 0 units/uL | Absolute Peripheral Blast Count (units/uL) ([3]; day 18 on study drug, 100 mg three times daily): 0 units/uL | Bone Marrow Blast (%) ([3]; day 27 on study drug, 100 mg three times daily): 10% | Absolute Peripheral Blast Count (units/uL) ([3]; day 28 on study drug, 100 mg three times daily): 0 units/uL | Absolute Peripheral Blast Count (units/uL) [3, 8]: 0 units/uL | Absolute Peripheral Blast Count (units/uL) ([3]; day 31 on study drug, 100 mg three times daily): 0 units/uL | Absolute Peripheral Blast Count (units/uL) ([3]; day 32 on study drug, 100 mg three times daily): 0 units/uL | Absolute Peripheral Blast Count (units/uL) [3, 9]: 0 units/uL | Bone Marrow Blast (%) [3, 9]: 5% | Absolute Peripheral Blast Count (units/uL) ([3]; day 39 on study drug, 100 mg three times daily): 0 units/uL | Absolute Peripheral Blast Count (units/uL) ([3]; day 42 on study drug, 100 mg three times daily): 0 units/uL | Absolute Peripheral Blast Count (units/uL) ([3]; day 44 on study drug, 100 mg three times daily): 0 units/uL | Absolute Peripheral Blast Count (units/uL) ([3]; day 45 on study drug, 100 mg three times daily): 0 units/uL | Absolute Peripheral Blast Count (units/uL) ([3]; day 46 on study drug, 100 mg three times daily): 0 units/uL | Absolute Peripheral Blast Count (units/uL) ([3]; day 47 on study drug, 100 mg three times daily): 0 units/uL | Absolute Peripheral Blast Count (units/uL) ([3]; day 48 on study drug, 100 mg three times daily): 0 units/uL | Absolute Peripheral Blast Count (units/uL) ([3]; day 49 on study drug, 100 mg three times daily): 0 units/uL | Absolute Peripheral Blast Count (units/uL) ([3]; day 50 on study drug, 100 mg three times daily): 0 units/uL | Absolute Peripheral Blast Count (units/uL) ([3]; day 51 on study drug, 100 mg three times daily): 0 units/uL | Absolute Peripheral Blast Count (units/uL) ([3]; day 52 on study drug, 100 mg three times daily): 0 units/uL | Days of therapy to complete clearance of malignant leukemic blasts in peripheral blood ([4]; 100 mg three times daily): 15 days | Clinical response (bone marrow biopsy) ([4]; after 29 days of therapy, 100 mg three times daily): complete remission with incomplete blood count recovery (CRi) | Absolute Peripheral Blast Count (cells/uL) ([4]; day 0 on study drug (baseline)): 198 cells/uL | Bone Marrow Blast (%) ([4]; day 0 on study drug (baseline)): 76% | Absolute Peripheral Blast Count (cells/uL) ([4]; day 1 on study drug, 100 mg three times daily): 130 cells/uL | Absolute Peripheral Blast Count (cells/uL) ([4]; day 8 on study drug, 100 mg three times daily): 19 cells/uL | Absolute Peripheral Blast Count (cells/uL) [4, 7]: 0 cells/uL | Absolute Peripheral Blast Count (cells/uL) ([4]; day 22 on study drug, 100 mg three times daily): 0 cells/uL | Absolute Peripheral Blast Count (cells/uL) [4, 8]: 0 cells/uL | Bone Marrow Blast (%) [4, 8]: 1% | Absolute Peripheral Blast Count (cells/uL) [4, 10]: 0 cells/uL | Bone Marrow Blast (%) [4, 10]: 1%

CNC(=O)c1cc(Oc2ccc(NC(=O)Nc3ccc(Cl)c(C(F)(F)F)c3)cc2)ccn1 [sorafenib]
Effect on bone marrow (BM) blasts [5]: only modest BM blast reductions | Effect on peripheral blood (PB) blasts [5]: effective in clearing PB blasts
